According to patent US20210401708A1, “Skin Anti-Aging Composition Containing Irilin B” (PHYTO CORPORATION INC., priority 2018, published 2021):

Experiments:
[1] = system: Collagenase isolated from mouse pancreases; assay: Measurement of anti-collagenase activity; assay type: biochemical
Description: Collagenase, used in the measurement of enzyme activity, was isolated from mouse pancreases. The synthetic peptide, N-(3-[2-Furyl]acryloyl)-Leu-Gly-Pro-Ala, was used as a substrate compound for an enzymatic reaction. A solution containing 50 mM Tricine, 10 mM CaCl2.H2O, and 400 mM NaCl (pH 7.5) dissolved therein was used as a buffer solution. The synthetic substrate was dissolved to a concentration of […] in the buffer solution, and then finally diluted to 75 μM. Collagenase was dissolved to a concentration of 1 unit/ml in tertiary distilled water at 4° C. Upon the test, the collagenase diluted to a final concentration of 0.05 unit/ml in the buffer solution was used. […] In addition, the concentration of retinol (Sigma Co.), which was a positive control known as an anti-collagenase substance, was 10 μg/ml or 20 μg/ml in the test. The reaction was carried out in 96-well UV plates (Corning Co.) at room temperature for 10 minutes. The absorbance was measured at 345 nm at intervals of 1 minute using a microplate spectrophotometer (Bio-Rad). The enzyme activity was determined by obtaining the maximal slope of absorbance over time. All enzymatic reactions were repeatedly carried out three times, and expressed as average values. The anti-collagenase activity was calculated as below:
Anti-collagenase activity (%)=[(absolute value of slope in control−absolute value of slope in test sample)/absolute value of slope in control]×100 [Calculation Formula]

aquaporin 3 (AQP3) = assay: Expression level of skin moisturizing factor AQP3 in UVA-irradiated HaCaT cells (RT-PCR); assay type: cell-based, human
Description: (§1) In order to investigate the expression levels of aquaporin 3 (AQP3) and hyaluronic acid synthase 2 (HAS2), which are moisturizing factors involved in the migration of cell moisture, the test was performed using the human skin keratinocytes HaCaT cells (Korean Cell Line Bank). The HaCaT cells were incubated in Dulbecco's modified Eagle's medium (DEME, Gibco 1210-0038) containing 10% FBS. Cell incubation was carried out using a 5% CO2 incubator at 37° C. After the cells were treated with Irilin B and ultraviolet light (aging treatment: UVA: 5 J/cm^2), the levels of AQP3 and HAS2 expressed in the cells were measured. The expression levels were measured by extracting RNA from the HaCaT cells and performing real-time polymerase change reaction (RT-PCR). The test substance Irilin B was treated after UVA irradiation. Irilin B was in advance prepared into a 10 mg/ml stock solution by addition of DMEM. Upon the test, the cells were treated with the stock solution diluted to 1/1,000 to 1/500. […]
(§2) The gene expression test (RNA extraction and real-time polymerase chain reaction (PCR)) was performed in the following order:
(§3) i) RNA was extracted using TRIzol Reagent (Gibco, USA).
(§4) ii) The cDNA synthesis from the extracted RNA was performed using the ReverTra Ace reverse transcriptase kit (Toyobo, USA). […]

[2] = system: hyaluronic acid synthase 2 (HAS2); assay: Expression level of skin moisturizing factor HAS2 in UVA-irradiated HaCaT cells (RT-PCR); assay type: cell-based, human; conditions: UVA 5 J/cm^2, 10, 20, 40 μg/ml, 24 hours
Description: as §1, §2, §3, §4

Human skin keratinocytes = assay: Keratinocyte differentiation promoting effect; assay type: cell-based; conditions: for Cell differentiation promoting effect (%): vs distilled water (0%)
Description: Human skin keratinocytes (Korean Cell Line Bank) were seeded in the CO2 incubation flask in which DMEM containing 10% FBS was placed. After the cells were grown to a confluency of about 80%, Irilin B at different concentrations (5, 10, 20, 50, 100 μg/ml) were added to the cells, followed by incubation for 3 days. Thereafter, the cells were treated with a reduction modifier, such as sodium dodecyl sulfate (SDS) and β-mercaptoethanol, to remove proteins. After the treatment, the remaining keratinocyte layer was suspended in distilled water, and then the absorbance was measured at 310 nm to analyze the peptide concentration. The increase by each sample was compared on the basis of the negative control, distilled water (0%). In the positive control, the cells were treated with 10 nM TGF-β known as a cell differentiation factor. All the tests of keratinocyte differentiation promoting effect were repeatedly carried out three times. The absorbance at 310 nm is expressed as a mean and standard deviation, and the cell differentiation promoting effect is expressed, using the following calculation formula, as an average value (%), in Table 4.
Cell differentiation promoting effect (%)=(absorbance value at 310 nm in test sample−absorbance value at 310 nm in negative control)×100 [Calculation Formula]

[3] = target: T1, elastase isolated from human leukocytes (Homo sapiens, UniProt P08246); assay: Measurement of anti-elastase activity; assay type: biochemical
T1 construct: The elastase isolated from human leukocytes were used; from tissue; host or cells: human leukocytes
T1 sequence (P08246 30-267): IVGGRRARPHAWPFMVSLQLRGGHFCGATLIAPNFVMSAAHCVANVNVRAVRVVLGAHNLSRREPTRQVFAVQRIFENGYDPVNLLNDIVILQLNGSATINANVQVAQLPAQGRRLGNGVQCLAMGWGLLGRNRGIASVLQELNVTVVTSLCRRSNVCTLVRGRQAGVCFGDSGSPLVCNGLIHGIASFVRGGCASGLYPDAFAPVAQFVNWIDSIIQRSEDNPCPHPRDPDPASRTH
Description: The anti-elastase activity (elastase being an elastin degradation enzyme) was tested as below. The elastase isolated from human leukocytes were used. The synthetic oligopeptide, MeOSuc-Ala-Ala-Pro-Val-pNA, was used as a substrate of an enzyme reaction. A 100 mM Tris (pH 7.5) solution was used as a buffer solution. Elastase was finally used at 0.2 mU using the buffer solution. In addition, the synthetic substrate of elastase was made into a 100 mM solution using […], and then diluted to a final concentration of 0.5 mM in the buffer solution. […] The concentration of quercetin (Sigma Co.), which was a positive control known as an anti-elastase substance, was 10 μg/ml or 20 μg/ml in the test. The reaction was carried out in 96-well UV plates (Corning Co.) at room temperature for 20 minutes. The absorbance was measured at 405 nm at intervals of 1 minute using a microplate spectrophotometer (Bio-Rad). The enzyme activity was determined by obtaining the maximal slope of absorbance over time. All enzymatic reactions were repeatedly carried out three times, and expressed as average values. The […] was calculated as below:
Anti-elastase activity (%)=[(absolute value of slope in control−absolute value of slope in test sample)/absolute value of slope in control]×100 [Calculation Formula]

[4] = both at 20 μg/ml, same conditions

Compound	Anti-collagenase activity (%) ([1]; 10 μg/ml)	Enzyme activity (Absolute value of maximal slope of absorbance over time at 345 nm) ([1]; 10 μg/ml)	Anti-collagenase activity (%) ([1]; 20 μg/ml)	Enzyme activity (Absolute value of maximal slope of absorbance over time at 345 nm) ([1]; 20 μg/ml)	Enzyme activity (Absolute value of maximal slope of absorbance over time at 405 nm) ([3]; 10 μg/ml)	inhibition at 10 µg/mL ([3]; 10 μg/ml) [%]	Enzyme activity (Absolute value of maximal slope of absorbance over time at 405 nm) ([3]; 20 μg/ml)	inhibition at 20 µg/mL ([3]; 20 μg/ml) [%]	also measured
COc1c(O)cc2occ(-c3ccccc3O)c(=O)c2c1O [Irilin B, 5,7,2′-trihydroxy-6-methoxyisoflavone]	49.38	0.41	62.96	0.30	0.72	42.9	0.54	57.1	Anti-collagenase activity (%) ([1]; 5 μg/ml): 33.33%; Enzyme activity (Absolute value of maximal slope of absorbance over time at 345 nm) ([1]; 5 μg/ml): 0.54; anti-collagenase activity compared with retinol [1, 4]: about 2.05 fold; expression level of AQP3 after UVA irradiation (FIG. 1) (aquaporin 3 (AQP3); UVA 5 J/cm^2, 40 μg/ml): again increased to a level in the control irradiated without UVA; expression of AQP3 after UVA irradiation (FIG. 1) (aquaporin 3 (AQP3); UVA 5 J/cm^2, 10, 20, 40 μg/ml, 24 hours): restored the UVA-reduced level of AQP3 in a dose dependent manner; expression of HAS2 after UVA irradiation (FIG. 2) [2]: again restored to a level in the normal control; Cell differentiation promoting effect (%) (Human skin keratinocytes; 10 μg/ml, 3 days): 28.2%; Cell differentiation promoting effect (%) (Human skin keratinocytes; 20 μg/ml, 3 days): 46.7%; Cell differentiation promoting effect (%) (Human skin keratinocytes; 50 μg/ml, 3 days): 95.3%; cell differentiation promoting effect compared with positive control (in words) (Human skin keratinocytes; 100 μg/ml vs TGF-β 10 nM): equivalent to the cell differentiation factor TGF-β (10 nM); Cell differentiation promoting effect (%) (Human skin keratinocytes; 100 μg/ml, 3 days): 142.4%; differentiation of keratinocytes (in words) (Human skin keratinocytes; 5, 10, 20, 50, and 100 μg/ml): promoted the differentiation of keratinocytes; Enzyme activity (Absolute value of maximal slope of absorbance over time at 405 nm) ([3]; 5 μg/ml): 0.85; inhibition at 5 µg/mL ([3]; 5 μg/ml): 32.5%; anti-elastase activity compared with quercetin [3, 4]: about 1.47 fold
O=c1c(O)c(-c2ccc(O)c(O)c2)oc2cc(O)cc(O)c12 [Quercetin, quercetin, reference compound]					0.88	30.2 ± 3.14	0.77	38.9	
CC1=C(/C=C/C(C)=C/C=C/C(C)=C/CO)C(C)(C)CCC1 [Retinol, reference compound]	17.28 ± 0.85	0.67	30.86	0.56					
transforming growth factor-β (TGF-β)									Cell differentiation promoting effect (%) (Human skin keratinocytes; 10 nM): 144.7%
